In EP3884948A1, “CATHEPSIN INHIBITORS AND USES THEREOF” (Ecole Polytechnique Fédérale de Lausanne (EPFL), priority 2020, dated 2021):

Columns and labels:
[1] = biological target: T1, cathepsin S (CTSS) (Homo sapiens, UniProt P25774); test: FRET assay for cathepsin S (inhibitor screen and substrate cleavage); format: biochemical; conditions: for cleavage by CTSS as substrate: FRET, CTSS-His-WT, SEQ ID NO: 1 compared with SEQ ID NO: 4; for inhibition of cathepsin S activity (MCA fluorescent emission): CTSS, peptide of SEQ ID NO: 1 as substrate, Fig. 3
T1 construct: made in house; host or cells: HEK293
T1 sequence (P25774 115-331): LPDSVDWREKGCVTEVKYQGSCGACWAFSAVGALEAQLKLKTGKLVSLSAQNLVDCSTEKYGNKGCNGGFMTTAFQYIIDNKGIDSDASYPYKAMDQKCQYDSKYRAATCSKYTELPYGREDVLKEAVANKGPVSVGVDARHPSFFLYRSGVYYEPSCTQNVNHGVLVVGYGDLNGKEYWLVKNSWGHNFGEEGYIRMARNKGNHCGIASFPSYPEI
Description: CTSS-His WT and Y132D were diluted to 10 µg/mL in Assay buffer (50 mM NaOAc, 5 mM DTT, 250 mM NaCl), at pH 4.5 and incubated at 37°C for 90 minutes to allow auto-activation. The proteins were then diluted to 0.5 ng/µl in Assay buffer and plated in 96-well plates (50 µl/well). The peptides of SEQ ID NO: 1, SEQ ID NO: 2, SEQ ID NO: 3, SEQ ID NO: 4 and SEQ ID NO: 5 were synthesized and diluted to 20 µM in a buffer (50 mM NaOAc, 5 mM DTT, 250 mM NaCl) then added to the activated CTSS (50 µl/well). 50 µM E64 (Selleckchem, cat #S7379) was added to CTSS prior to the substrate as positive control. A commercially available CTSS purified protein (R&D systems, cat #1183-CY-010) was in addition used as control. MCA emission was measured with SpectraMax iD3 (Molecular Devices) in kinetic mode for 20 minutes (excitation: 330 nm, emission: 390 nm).
The FRET assay was miniaturized to performed the screen in […] and each molecule was tested in duplicates. 10 µg/ml of CTSS was incubated in the activation buffer for 105 minutes to allow a complete activation of the enzyme. Then, the enzyme was diluted at 0.5 µg/ml and dispensed in […] pre-loaded with the small molecule candidates using an automatic dispenser (Biotek Dispenser multiflo). The plates were incubated for 10 minutes at room temperature and then 20 µM of substrate was added in each well and acquired the fluorescence signal (excitation: 330 nm, emission: 390 nm) after 90 minutes. For each plate, were included untreated wells as negative control and E64 was used (150 µM) as positive control. To assess the quality of the screen, a Z'-score for each plate was calculated and all plates had Z' score > 0.6. To identify possible hits, the average value and standard deviation of the positive and negative control were calculated. The upper and lower limit values for each plate were calculated considering plus/minus three times the standard deviation to the average and only compounds that in both independent duplicate scored below the positive control threshold were retained.

[2] = system: human lymphoma cancer cell lines (Karpas-422 and DoHH2); test: Cell viability assay in lymphoma cell lines; format: cell-based; conditions: for toxicity / cell survival: Karpas-422 and DoHH2, 48h or 72h, increasing doses up to 50 µM
Description: Two human lymphoma cell lines DoHH2 and Karpas-422 and one murine lymphoma cell line A20 were treated with increasing concentration of compounds (1), (5) and (9). 24 hours before treatment cells were diluted at 2^∗10^5 cells/ml. Cell number was measured at 48h and 72h after treatment using automatic cell counting of Millipore Guava. The values were normalized to cells treated with the same dose of vehicle (DMSO).
Next, the toxicity of these inhibitors on two human lymphoma cancer cell lines (Karpas-422 and DoHH2). The cells were treated with the small molecules for 48h or 72h at increasing doses (50 µM, 10 µM, µM, 0.1 µM). […] Conversely, compound (9) progressively decreases cell proliferation of up to 50% after 72 hours of exposure to the 0. 1 µM of the compound or less than 30% in cells treated with 10 or 50 µM.

[3] = biological target: cathepsin B (CTSB) (Homo sapiens, UniProt P07858); test: FRET specificity assay for cathepsin B; format: biochemical; conditions: for inhibition of Cathepsin B activity (MCA fluorescent emission): CTSB, peptide of SEQ ID NO: 5 as substrate, Fig. 4
Description: (§1) First, specific conditions to activate the enzymes were used as follows: CTSB was diluted in active buffer (MES 25 mM, DTT 5 mM, pH 5) at 10 µg/ml, incubated at 37°C for 2h and then diluted to 1 µg/ml in assay buffer (MES 25 mM, pH 5) for the FRET assay. CTSH was diluted in a specific active buffer (MES 50 mM, CaCl2 10 mM, NaCl 150 mM, pH 6.5) 200 µg/ml. In addition, as co-stimulatory activator thermolysin diluted at 100 µg/ml in active buffer was used mixed with equal volume of the diluted CTSH. The solution was incubated for 1h room temperature and then we added 2 mM Phosporamidon diluted in assay buffer (MES 50 mM, pH 6,5) and incubate the mix for 10 minutes at room temperature. Lastly, an equal volume of assay buffer containing 20 mM DTT was added and the mixture incubated 5 minutes at room temperature. For the FRET assay, diluted both CTSH, and CTSB at 1 µg/ml were used in their specific assay buffer and incubated with a specific substrate. As substrate, the following peptides were used: peptide of SEQ ID NO: 5 (KPPKPVSD) in CTSB FRET assays and SEQ ID NO: 1 (KLRMKLPKP) in CTSH FRET assays and tested increasing doses of candidate inhibitors (20 µM, 10 µM, 1 µM, 0.1 µM). Fluorescence emission was measured with SpectraMax iD3 (Molecular Devices) in kinetic mode over three hours (excitation: 330 nm, emission: 390 nm).

[4] = biological target: cathepsin H (CTSH) (Homo sapiens, UniProt P09668); test: FRET specificity assay for cathepsin H; format: biochemical; conditions: peptide of SEQ ID NO: 2 as substrate, Fig. 5
Chain of cathepsin H (CTSH) (P09668 116-335 limits assumed, other chains not shown): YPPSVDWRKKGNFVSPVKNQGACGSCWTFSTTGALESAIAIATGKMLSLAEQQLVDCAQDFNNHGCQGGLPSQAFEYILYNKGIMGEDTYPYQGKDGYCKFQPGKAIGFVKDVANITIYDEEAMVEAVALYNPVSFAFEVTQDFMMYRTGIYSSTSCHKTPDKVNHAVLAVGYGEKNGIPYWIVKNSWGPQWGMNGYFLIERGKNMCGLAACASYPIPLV
Description: as §1, with “As substrate, the following peptides were used: peptide of SEQ ID NO: 5 (KPPKPVSD) in CTSB FRET assays and SEQ ID NO: 1 (KLRMKLPKP) in CTSH FRET assays and tested increasing doses of candidate inhibitors (20 µM, 10 µM, 1 µM, 0.1 µM).” left out

[5] = system: A20-HA lymphoma cells co-incubated with CD8+ T-cells isolated from CL4-HA transgenic animals; test: Co-culture assay of A20-HA lymphoma cells with CD8+ T-cells; format: cell-based, mouse; conditions: A20-HA cells pre-treated with 30uM inhibitor; for over-activation of CD8+ T-cells: 72h co-incubation
Description: Proteins were extracted using a buffer containing 20 mM Tris-HCl (pH 7.5) 150 mM NaCl, 1 mM Na2EDTA 1 mM EGTA 1% NP-40 1% sodium deoxycholate 2.5 mM sodium pyrophosphate 1 mM β-glycerophosphate 1 mM Na3VO4 1 µg/ml leupeptin) supplemented with protease (Sigma Aldrich, cat #11836153001) and phosphatases (Roche, cat #04906837001) inhibitors and quantified with the Bradford reagent (Bio-Rad, cat #5000006). 20-30 µg of proteins were resolved on SDS-PAGE and transferred at 20V for 20-30 minutes to Immobilon-P-membranes (Millipore). After blocking in 5% milk (Applichem, cat #A0830) in PBS-0.1%Tween (Fisher scientific, cat #BP337), membranes were incubated overnight in 5% milk in PBS-Tween with the following primary antibodies: goat anti-human Cathepsin S (RD, cat #AF1183, 1:2000), Cathepsin B (D1C7Y) XP® Rabbit (Cell signaling mAb #31718), rabbit anti-mouse Cathepsin S (Sino Biological, cat #50769-R054, 1:1000), mouse anti-human CD74 (PIN.1, StressMarq, cat #SMC-116, diluted 1:1000), rat-anti-mouse CD74 (clone ln-1, BD biosciences, cat #555317, 1:1000), rabbit anti-his-Tag (Cell Signaling, cat #D3I10, dilute 1:1000), mouse anti-human alpha-Tubulin (clone B-5-1-2, Sigma Aldrich, cat#T6072, diluted 1:10000), anti-beta actin (clone 8H10D10, ThermoFisher Scientific, cat# MA5-15452, 1:1000).
At the end of the B-cell/T cell co-culture, […] and analyzed for the proliferation of T cells stained with an Pe-Cy7 anti-mouse CD8a antibody (Clone 53-6.7, BD Biosciences, San Jose, CA, USA, cat #552877) or PercP efluor 710 rat anti-CD4 antibody (bd bioscience, cat#564379) by quantifying CellTrace violet proliferation peaks using flow cytometry. In parallel, B cell concentration was measured using cell-counting flow-cytometer (Guava easyCyte). A20-HA lymphoma cells wild-type, Ctss knock-out, B2m knock-out, and Pdl1 knock-out expressing HA as antigen were pre-treated with 30uM E64 (Apexbio Technology LLC (cat #A2576), 30uM Z-FL-COCHO (Anawa trading SA, cat #A13502-5), 30uM LY300328 (Lucerna Chem AG, cat # MCE-HY-15533) or-directly co-incubated for 72h with CellTrace violet stained CD8+ T-cells isolated from CL4-HA transgenic animals. At the end of the B-cell/T cell co-culture, cells were collected, stained with PE-Cy7 anti-mouse CD8a antibody (Clone 53-6.7, BD Biosciences, San Jose, CA, USA cat #552877) and analyzed for the proliferation of T cells stained by quantifying CellTrace violet proliferation peaks using flow cytometry. In parallel, B cell concentration was measured using cell-counting flow-cytometer (Guava easyCyte).

Compound: KLRMKLPKD [SEQ ID NO: 2]
- cleavage by CTSS as substrate [1]: improved cathepsin S substrate

Compound: KLRMKLPKP [SEQ ID NO: 1]
- cleavage by CTSS as substrate [1]: cleaved more efficiently

Compound: Cc1nc(N2CCCC(C(=O)NCc3ccco3)C2)c2c(C)c(C)oc2n1 (stereo not shown) [compound (9), N-(2-furanylmethyl)-1-(2,5,6-trimethylfuro[2,3-d]pyrimidin-4-yl)-3-piperidinecarboxamide]
- inhibition at 0.1 µM ([2]; Homo sapiens, after 72 hours of exposure to 0.1 µM, read-out: decrease of cell proliferation): ≤ 50%

Compound: O=c1ccc(-c2ccco2)nn1CCNS(=O)(=O)c1ccccc1F [compound (1), 2-fluoro-N-[2-[3-(2-furanyl)-6-oxo-1(6H)-pyridazinyl]ethyl]-benzenesulfonamide]
- inhibition of cathepsin S activity (MCA fluorescent emission) [1]: able to inhibit cathepsin S activity
- toxicity / cell survival [2]: well tolerated
- inhibition of Cathepsin B activity (MCA fluorescent emission) [3]: not Cathepsin B
- inhibition of Cathepsin H activity (MCA fluorescent emission) [4]: not Cathepsin H

Compound: Cc1noc(C)c1CC(=O)NCCn1nc(-c2ccco2)ccc1=O [compound (5), N-[2-[3-(2-furanyl)-6-oxo-1(6H)-pyridazinyl]ethyl]-3,5-dimethyl-4-isoxazoleacetamide]
- inhibition of cathepsin S activity (MCA fluorescent emission) [1]: able to inhibit cathepsin S activity
- toxicity / cell survival [2]: well tolerated
- inhibition of Cathepsin B activity (MCA fluorescent emission) [3]: not Cathepsin B
- inhibition of Cathepsin H activity (MCA fluorescent emission) [4]: not Cathepsin H

Compound: CC(C)C[C@H](NC(=O)[C@H]1O[C@@H]1C(=O)O)C(=O)NCCCCNC(=N)N [E64]
- accumulation of the small fragment of CD74, p10 [5]: observed
- over-activation of CD8+ T-cells [5]: no over-activation

Compound: Cc1oc2ncnc(N3CCCC(C(=O)NCCc4ccco4)C3)c2c1C (stereo not shown) [compound (11), 1-(5,6-dimethylfuro[2,3-d]pyrimidin-4-yl)-N-[2-(2-furanyl)ethyl]-3-piperidinecarboxamide]
- inhibition of cathepsin S activity (MCA fluorescent emission) [1]: able to inhibit cathepsin S activity
- inhibition of Cathepsin B activity (MCA fluorescent emission) [3]: not Cathepsin B
- inhibition of Cathepsin H activity (MCA fluorescent emission) [4]: not Cathepsin H

Compound: Z-FL-COCHO
- accumulation of the small fragment of CD74, p10 [5]: observed
- over-activation of CD8+ T-cells [5]: no over-activation

Compound: KPPKPVSK [SEQ ID NO: 4]
- substrate for Cathepsin B [3]: good substrate for Cathepsin B
